According to patent EP0403882A2, “Indole derivatives and processes for preparation thereof” (FUJISAWA PHARMACEUTICAL CO., LTD., priority 1989, dated 1990):

What was measured:
[1] = test system: Cisplatin-induced vomiting; assay: Inhibition of Cisplatin-induced vomiting; assay type: in vivo, female beagles; settings: dose 100 μg/kg intravenously twice, 10 minutes prior to and 90 minutes after Cisplatin (3.2 mg/kg, iv); observed up to 5 hours
Protocol: (B) Inhibition of Cisplatin-induced vomiting
Nonfasted female beagles weighing about 10 kg were administered test compound or saline intravenously twice 10 minutes prior to and 90 minutes after Cisplatin dosing (3.2 mg/kg, iv).
Cisplatin was dissolved in 0.9% warm saline with a final concentration of 3 mgiml and used immediately.

Benzold-Jarisch reflex = assay: Inhibition of Benzold-Jarisch reflex (bradycardic response to 2-methyl-5-hydroxytryptamine in anesthetized rats); assay type: in vivo, Male Sprague-Dawley rats; settings: dose 3.2 μg/kg iv, given 5 minutes before 2-methyl-5-hydroxytryptamine (32 ug/kg, iv), urethane-anesthetized rats
From the text: (A) Inhibition of Benzold-Jarisch reflex
Male Sprague-Dawley rats weighing 260-350 g were anesthetized intraperitoneally with 1.25 g/kg urethane.
Blood pressure and heart rate were monitored continuously from the left common carotid artery with a pressure transducer. A right femoral vein was connulated for the intravenous injection (iv) of drugs. The trachea was also connulated to ease the respiration.
Rats were given a rapid bolus injection of 2-methyl-5-hydroxytryptamine (32 u.g/kg, iv) to establish the control bradycardic response. Once the heart rate returned to base line, the .rats were given the test compound (iv), followed by 5-minutes interval and another bolus injection of 2-methyl-5-hydroxytryptamine (32 ug/kg, iv).

Compound: Cc1cn(C(=O)CC2CC3CCC(C2)N3C)c2ccccc12.Cl (centres unmarked) [Example 2, 3-methyl-1-[(8-methyl-8-azabicyclo[3.2.1]oct-3-yl)acetyl]indole hydrochloride]
- Inhibition (%) [1]: 95.2%
- Inhibition (%) (Benzold-Jarisch reflex): 52.9%
